Test results reported in publication PMC5933782, “Molecular structures of cdc2-like kinases in complex with a new inhibitor chemotype” (PLoS ONE, 2018).

What was measured:
[1] = molecular target: CDK1/cyclin B; assay: radiometric protein kinase assay; type: biochemical, starfish; conditions: 15 μmol/L ATP
[2] = molecular target: T1, CDK5/p25 (Homo sapiens, UniProt Q00535); assay: radiometric protein kinase assay; type: biochemical; conditions: 15 μmol/L ATP
T1 construct: made in house

[3] = molecular target: CK1δ/ε; assay: radiometric protein kinase assay; type: biochemical, porcine; conditions: 15 μmol/L ATP; read-out: IC50 CK1
[4] = molecular target: DYRK1A (Homo sapiens, UniProt Q13627); assay: radiometric protein kinase assay; type: biochemical; conditions: 15 μmol/L ATP; read-out: IC50 DYRK 1A
[5] = molecular target: T2, DYRK3 (Homo sapiens, UniProt O43781); assay: radiometric protein kinase assay; type: biochemical; conditions: 15 μmol/L ATP; read-out: IC50 DYRK 3
T2 sequence (O43781 1-588): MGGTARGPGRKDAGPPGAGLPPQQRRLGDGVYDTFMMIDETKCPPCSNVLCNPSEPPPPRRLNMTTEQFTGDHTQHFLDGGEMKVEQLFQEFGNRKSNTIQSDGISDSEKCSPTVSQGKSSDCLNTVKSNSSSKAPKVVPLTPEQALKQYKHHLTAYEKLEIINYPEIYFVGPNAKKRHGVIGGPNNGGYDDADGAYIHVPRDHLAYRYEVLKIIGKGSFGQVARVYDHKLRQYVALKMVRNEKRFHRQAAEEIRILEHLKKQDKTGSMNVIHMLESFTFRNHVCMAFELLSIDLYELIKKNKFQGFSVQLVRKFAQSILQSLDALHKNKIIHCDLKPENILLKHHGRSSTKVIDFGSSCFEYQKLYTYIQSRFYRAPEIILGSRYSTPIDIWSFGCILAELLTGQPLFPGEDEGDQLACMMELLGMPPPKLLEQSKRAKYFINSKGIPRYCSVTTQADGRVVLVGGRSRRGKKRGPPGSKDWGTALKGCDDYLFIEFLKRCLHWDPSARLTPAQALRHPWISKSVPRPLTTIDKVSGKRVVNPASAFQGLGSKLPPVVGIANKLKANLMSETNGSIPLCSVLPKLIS

[6] = molecular target: GSK-3; assay: radiometric protein kinase assay; type: biochemical, porcine; conditions: 15 μmol/L ATP; read-out: IC50 GSK3
[7] = system: HT-29 colon carcinoma cells; assay: crystal violet proliferation assay; type: cell-based; conditions: Homo sapiens, 72 h exposure, triplicate
Description: (§1) For experiments with RC-124 cells, microtiter plates had been pretreated in the following way: 30 μL of a sterilized gelatine solution (1.5% (m/V)) were added to each well of flat bottom 96-well plates, the plates were covered with their lids, incubated for 1h at 37°C, the excess solution was removed, the wells were washed with PBS 7.4 pH, and the new cell-culture medium was added.
(§2) The antiproliferative effects were determined according to a routinely used method. In short: a volume of 100 μL of HT-29 cells (2565 cells/mL), MDA-MB-231 cells (4120 cells/mL), MCF-7 cells (4840 cells/mL) or RC-124 cells (1460 cells/mL) was transferred into the wells of 96-well plates (note: for RC-124 pretreated plates were used, see above) and incubated at 37°C/5% CO2 for 72 h (MCF-7, MDA-MB-231, RC-124) or 48 h (HT-29). Stock solutions of 8c in DMSO were prepared and diluted with the respective cell culture medium to graded concentrations (final concentration of […]: 0.1% v/v). […] Results were calculated as the mean values of three independent experiments.

[8] = system: MCF-7 breast carcinoma cells; assay: crystal violet proliferation assay; type: cell-based; conditions: Homo sapiens, MCF7, 96 h exposure, duplicate
Description: as §1, §2

[9] = system: MDA-MB-231 breast cancer cells; assay: crystal violet proliferation assay; type: cell-based; conditions: Homo sapiens, 96 h exposure, triplicate
Description: as §1, §2

[10] = system: RC-124 healthy human kidney cells; assay: crystal violet proliferation assay; type: cell-based; conditions: 96 h exposure, triplicate
Description: as §1, §2

[11] = molecular target: CDK9/cyclin T (Homo sapiens, UniProt P50750); assay: radiometric protein kinase assay
Chain of CDK9/cyclin T (P50750 whole entry): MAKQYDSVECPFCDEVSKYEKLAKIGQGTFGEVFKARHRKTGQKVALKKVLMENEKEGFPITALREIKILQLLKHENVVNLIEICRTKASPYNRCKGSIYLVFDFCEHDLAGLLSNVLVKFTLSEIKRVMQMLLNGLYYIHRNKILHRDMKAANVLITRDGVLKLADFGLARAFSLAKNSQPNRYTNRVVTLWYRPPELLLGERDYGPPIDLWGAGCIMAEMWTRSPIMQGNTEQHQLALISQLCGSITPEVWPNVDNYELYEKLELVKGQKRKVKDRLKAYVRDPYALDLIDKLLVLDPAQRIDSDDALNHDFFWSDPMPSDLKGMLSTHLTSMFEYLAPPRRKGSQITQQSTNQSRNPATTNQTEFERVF
Chain of CDK9/cyclin T (O60563 whole entry partner): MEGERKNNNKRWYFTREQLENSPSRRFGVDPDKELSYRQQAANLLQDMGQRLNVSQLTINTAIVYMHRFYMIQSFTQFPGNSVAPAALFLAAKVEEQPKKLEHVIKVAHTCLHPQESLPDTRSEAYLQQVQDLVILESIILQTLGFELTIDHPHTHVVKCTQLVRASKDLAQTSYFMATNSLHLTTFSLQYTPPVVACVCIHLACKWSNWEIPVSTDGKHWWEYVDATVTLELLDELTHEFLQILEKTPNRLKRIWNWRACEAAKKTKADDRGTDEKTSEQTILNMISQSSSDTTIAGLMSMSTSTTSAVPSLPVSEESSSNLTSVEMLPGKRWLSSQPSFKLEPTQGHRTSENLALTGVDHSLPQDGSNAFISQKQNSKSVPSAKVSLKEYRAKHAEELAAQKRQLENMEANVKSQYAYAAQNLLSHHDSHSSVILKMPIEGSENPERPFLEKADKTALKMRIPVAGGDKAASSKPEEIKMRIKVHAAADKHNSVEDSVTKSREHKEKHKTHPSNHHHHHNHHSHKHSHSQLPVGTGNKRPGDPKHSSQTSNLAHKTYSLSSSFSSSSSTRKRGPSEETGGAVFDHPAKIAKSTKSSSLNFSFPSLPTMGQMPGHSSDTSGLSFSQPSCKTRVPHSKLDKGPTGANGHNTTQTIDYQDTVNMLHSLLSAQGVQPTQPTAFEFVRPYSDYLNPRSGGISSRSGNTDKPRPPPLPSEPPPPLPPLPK

[12] = molecular target: CLK2 (Mus musculus, UniProt O35491); assay: radiometric protein kinase assay
Chain of CLK2 (O35491 whole entry): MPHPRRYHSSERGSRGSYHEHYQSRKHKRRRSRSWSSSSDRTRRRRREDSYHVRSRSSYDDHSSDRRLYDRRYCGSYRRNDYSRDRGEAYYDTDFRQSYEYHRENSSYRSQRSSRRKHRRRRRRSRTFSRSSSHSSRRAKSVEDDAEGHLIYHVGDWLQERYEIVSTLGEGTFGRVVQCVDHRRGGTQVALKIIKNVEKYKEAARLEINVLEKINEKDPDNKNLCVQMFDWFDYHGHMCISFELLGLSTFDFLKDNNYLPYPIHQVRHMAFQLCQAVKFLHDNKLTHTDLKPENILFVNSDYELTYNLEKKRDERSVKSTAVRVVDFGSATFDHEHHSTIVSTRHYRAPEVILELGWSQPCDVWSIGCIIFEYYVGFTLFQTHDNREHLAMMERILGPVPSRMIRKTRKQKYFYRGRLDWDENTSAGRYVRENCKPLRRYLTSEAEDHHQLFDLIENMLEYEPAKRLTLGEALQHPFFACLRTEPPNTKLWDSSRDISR

[13] = molecular target: CLK4 (Mus musculus, UniProt O35493); assay: radiometric protein kinase assay
Chain of CLK4 (O35493 whole entry): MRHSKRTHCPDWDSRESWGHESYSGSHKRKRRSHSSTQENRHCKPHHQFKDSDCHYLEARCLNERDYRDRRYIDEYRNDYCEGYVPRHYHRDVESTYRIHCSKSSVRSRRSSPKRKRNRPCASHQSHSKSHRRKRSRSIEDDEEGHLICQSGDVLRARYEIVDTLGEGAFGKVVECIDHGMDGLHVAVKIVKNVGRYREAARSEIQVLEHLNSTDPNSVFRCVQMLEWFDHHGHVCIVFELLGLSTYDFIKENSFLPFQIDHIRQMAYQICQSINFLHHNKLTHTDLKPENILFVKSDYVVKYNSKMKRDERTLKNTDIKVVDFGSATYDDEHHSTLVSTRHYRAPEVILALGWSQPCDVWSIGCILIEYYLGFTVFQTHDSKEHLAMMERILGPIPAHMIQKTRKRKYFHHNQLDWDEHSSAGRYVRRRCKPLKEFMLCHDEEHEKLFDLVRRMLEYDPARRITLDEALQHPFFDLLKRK
Description: Buffers. Buffer A: 10 mM MgCl2, 1 mM EGTA, 1 mM DTT, 25 mM Tris-HCl pH 7.5, 50 μg heparin/mL. Buffer C: 60 mM β-glycerophosphate, 15 mM p-nitrophenylphosphate, 25 mM MOPS (pH 7.2), 15 mM EGTA, 15 mM MgCl2, 1 mM DTT, 1 mM sodium vanadate, 1 mM phenylphosphate.
Kinase activities were assayed in buffer A or C at 30°C at a final ATP concentration of 15 μmol/L. Blank values were subtracted and activities were expressed in percent of the maximal activity, i.e. in the absence of inhibitors. Controls were performed with appropriate dilutions of DMSO.
Their kinase activity was assayed in buffer A, with 1 mg histone H1/mL, in the presence of 15 μmol/L [γ-33P] ATP (3,000 Ci/mmol; 10 mCi/mL) in a final volume of 30 μL. After 30 min incubation at 30°C, the reaction was stopped by harvesting onto P81 phosphocellulose supernatant (Whatman) using a FilterMate harvester (Packard) and washing in 1% phosphoric acid. Scintillation fluid was added and the radioactivity measured in a Packard counter.
All data points for construction of dose response curves were recorded in triplicate.

T1 sequence (Q00535 whole entry): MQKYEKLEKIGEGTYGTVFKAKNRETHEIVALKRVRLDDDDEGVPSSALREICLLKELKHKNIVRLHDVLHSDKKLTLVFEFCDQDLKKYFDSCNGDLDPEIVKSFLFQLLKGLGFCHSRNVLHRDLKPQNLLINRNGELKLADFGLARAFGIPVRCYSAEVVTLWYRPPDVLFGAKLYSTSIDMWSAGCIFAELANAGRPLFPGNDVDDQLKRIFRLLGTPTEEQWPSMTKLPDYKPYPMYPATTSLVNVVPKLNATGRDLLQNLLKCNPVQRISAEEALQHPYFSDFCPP
T1 sequence (Q15078 99-307 partner limits assumed): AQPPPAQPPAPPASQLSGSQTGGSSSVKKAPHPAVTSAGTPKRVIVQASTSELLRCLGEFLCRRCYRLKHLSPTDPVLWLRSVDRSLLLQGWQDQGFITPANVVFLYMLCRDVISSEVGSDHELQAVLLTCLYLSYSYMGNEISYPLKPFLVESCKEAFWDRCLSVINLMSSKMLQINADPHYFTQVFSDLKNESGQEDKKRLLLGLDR

O=C1NCc2ccc3c(-c4cccc(Cl)c4)c[nH]c3c21 [8c, 3-(3-Chlorophenyl)-6,7-dihydropyrrolo[3,4-g]indol-8(1H)-one]
IC50 [1]: > 10 µM
IC50 [2]: > 10 µM
IC50 [3]: > 10 µM
IC50 [4]: > 10 µM
IC50 [5]: > 10 µM
IC50 [6]: > 10 µM
GI50 [7]: 0.12 ± 0.01 µM
GI50 [8]: 0.35 ± 0.16 µM
GI50 [9]: 0.28 ± 0.05 µM
GI50 [10]: 0.44 ± 0.1 µM
IC50 [11]: > 10 µM
IC50 [12]: 0.51 µM
IC50 [13]: 0.028 µM
